Substitutions are numbered along the chain they refer to. Residues, ends and D or L forms follow the SMILES beside them. No end group written: not given here.
T1: NRZ R86A (Danio rerio, UniProt Q8UWD5, R86A)
T1 sequence (Q8UWD5 1-148 R86A): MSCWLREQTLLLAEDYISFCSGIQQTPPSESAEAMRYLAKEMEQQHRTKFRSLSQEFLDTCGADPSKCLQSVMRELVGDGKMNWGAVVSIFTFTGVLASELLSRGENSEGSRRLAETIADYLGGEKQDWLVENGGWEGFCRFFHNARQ

T2: NRZ D79A (Danio rerio, UniProt Q8UWD5, D79A)
T2 sequence (Q8UWD5 1-148 D79A): T1 sequence (Q8UWD5 1-148 R86A) with D79A, A86R

T3: wt-NRZ (Danio rerio, UniProt Q8UWD5)
T3 sequence (Q8UWD5 1-148): T1 sequence (Q8UWD5 1-148 R86A) with A86R


What was measured:
[1] = target: T1, NRZ R86A; assay: ITC affinity measurement of NRZ: BH3 motif interactions (mutant R86A); assay type: binding, zebrafish (Danio rerio); parameters: key to NRZ R86A KD: NB: no binding; details: MicroCal iTC200, 25 °C, 25 mM HEPES pH 7.5, 150 mM NaCl, 2 mM BME, protein 30 μM, peptide 300 μM, 19 injections of 2.0 μl, means of three replicates with standard error
Protocol: (§1) NRZ mutants D79A and R86A were codon-optimized and synthesized (Genscript) and subsequently cloned into the pGEX-6P-3 vector (Invitrogen). Expression and purification were performed using the same protocol as for wild-type NRZ.
(§2) Binding affinities were measured by isothermal titration calorimetry (ITC) employing a MicroCal iTC200 system (GE Healthcare) at 25 °C using wt-NRZ, and NRZ mutants D79A and R86A in 25 mM HEPES, pH 7.5, 150 mM NaCl, 2 mM BME at a final concentration of 30 μM as previously described. BH3 motif peptide ligands were used at a concentration of 300 μM and titrated using 19 injections of 2.0 μl of ligand. All affinity measurements were performed in triplicate. Protein concentrations were measured using a Nanodrop UV spectrophotometer (Thermo Scientific, Scoresbury, Australia) at a wavelength of 280 nm. Peptide concentrations were calculated based on the dry peptide weight after synthesis. The zebrafish BH3-motif peptides used were commercially synthesized and were purified to a final purity of 95% (GenScript, Piscataway, New Jersey, US). zBim: […] (UniProt accession code B2KKY9, residues 117–142), zPuma: […] (accession code Q0GKC9, residues 123–148), zBik: […] (accession code Q5RGV6, residues 30–55), zBax: […] (accession code Q9I9N4, residues 52–79), zBid: […] (accession code Q0GKC5, residues 85–112), zBad: […] (accession code A7MCM4, 88–113 residues), zBmf: […] (accession code Q0GKC7, residues 89–114), zNoxa: […] (accession code Q0GKC8, residues 5–30), zBok: […] (accession code Q7T381, residues 60–85), zBeclin: […] (accession code F1RCP1, residues 102–127), zBcl-wav: […] (accession code D2Y5Q2, residues 42–67).

[2] = target: T2, NRZ D79A; assay: ITC affinity measurement of NRZ: BH3 motif interactions (mutant D79A); assay type: binding, zebrafish (Danio rerio); parameters: key to NRZ D79A KD: NB: no binding; details: MicroCal iTC200, 25 °C, 25 mM HEPES pH 7.5, 150 mM NaCl, 2 mM BME, protein 30 μM, peptide 300 μM, 19 injections of 2.0 μl, means of three replicates with standard error
Protocol: as §1, §2

[3] = target: T3, wt-NRZ; assay: ITC affinity measurement of NRZ: BH3 motif interactions (wild type); assay type: binding, zebrafish (Danio rerio); details: MicroCal iTC200, 25 °C, 25 mM HEPES pH 7.5, 150 mM NaCl, 2 mM BME, NRZ 30 μM, peptide 300 μM, 19 injections of 2.0 μl, means of three replicates with standard error
Protocol: as §2

[4] = target: NRZ D79A (zebrafish (Danio rerio)) (UniProt Q8UWD5); assay: ITC; MicroCal iTC200, 25 °C; NRZ (wt, D79A or R86A) at 30 μM in 25 mM HEPES pH 7.5, 150 mM NaCl, 2 mM BME; BH3 peptide at 300 μM titrated in 19 injections of 2.0 μl; triplicate
[5] = target: NRZ R86A (zebrafish (Danio rerio)) (UniProt Q8UWD5); assay: as above
[6] = target: NRZ (zebrafish pro-survival Bcl-2 protein), lacking the 28 C-terminal residues (zebrafish (Danio rerio)); assay: as above

Row | Kd [1] [nM] | Kd [2] [nM] | Kd [4] [nM] | Kd [5] [nM] | Molecule | other results
1 | 510 ± 41 | 335 ± 31 |  |  | EQTAVVECAQQLRNIGDLLNWKYKLL [Noxa] | 
2 | 17 ± 3 | 14 ± 3 |  |  | NMRVTQTIGRQLAQIGDEMDNKWRQE [Bik] | 
3 | 4600 ± 440 | 264 ± 42 |  |  | CC[C@H](C)[C@H](NC(=O)[C@H](CCC(N)=O)NC(=O)[C@H](CCC(N)=O)NC(=O)[C@H](CC(C)C)NC(=O)[C@H](CS)NC(=O)[C@H](CCC(N)=O)NC(=O)[C@H](C)NC(=O)[C@H](CC(C)C)NC(=O)[C@H](CCCNC(=N)N)NC(=O)[C@H](CCCCN)NC(=O)[C@H](Cc1c[nH]cn1)NC(=O)[C@H](CO)NC(=O)[C@@H]1CCCN1C(=O)[C@H](CC(=O)O)NC(=O)[C@H](CS)NC(=O)[C@H](CC(C)C)NC(=O)[C@@H](N)CCC(=O)O)C(=O)NCC(=O)N[C@@H](CC(=O)O)C(=O)N[C@@H](CCC(=O)O)C(=O)N[C@@H](CC(C)C)C(=O)N[C@@H](CC(=O)O)C(=O)NCC(=O)N[C@@H](CC(N)=O)C(=O)N[C@@H](C)C(=O)N[C@@H](CCC(N)=O)C(=O)N[C@@H](CC(C)C)C(=O)N[C@@H](CCC(N)=O)C(=O)O [Bax] (H-ELCDPSHKRLAQCLQQIGDELDGNAQLQ-OH) | 
4 |  | 220 ± 16 |  |  | EARAAREMAAELIRIADLLEQSVLSQAA [Bid] | 
5 |  |  |  |  | DGGTMENLSRRLKVTSNLFDIMSGQT [Beclin] | WT NRZ KD [3]: no detectable affinity and NB; WT NRZ KD ([3]; listed as Beclin-1): does not bind; NRZ R86A KD [1]: NB; NRZ D79A KD [2]: NB
6 |  |  |  |  | AQSVETLIGQKLQLIGDQFYQEHIMH [Bmf] | WT NRZ KD [3]: no detectable affinity and no affinity and NB; NRZ R86A KD [1]: NB; NRZ D79A KD [2]: NB
7 | 168 ± 8 | 13 ± 4 |  |  | ALPPEMVVARELRRIGDEFNRLYCEA [Bim] | 
8 | 4800 ± 88 | 3330 ± 41 |  |  | ALWAAKKYGQQLRRMSDEFDKGQMKR [Bad] | 
9 | 2770 ± 162 | 117 ± 5 |  |  | EEQAVERVAVQLRTIGDEMNAVFLQR [Puma] | 
10 |  |  |  |  | LCPAPSRASAALRHAGDELLIRFPIF [Bcl-wav] | Kd [3]: 3570 ± 162 nM; NRZ R86A KD [1]: ablated; NRZ D79A KD [2]: ablated
11 |  |  | 14 | 17 | NMRVTQTIGRQLAQIGDEMDNKWRQE [zBik BH3 motif peptide] | Kd [6]: 12 nM
12 |  |  | 3330 | 4800 | ALWAAKKYGQQLRRMSDEFDKGQMKR [zBad BH3 motif peptide] | 
13 |  |  | 220 |  | EARAAREMAAELIRIADLLEQSVLSQAA [zBid BH3 motif peptide] | Kd [6]: 409 nM
14 |  |  |  |  | LCPAPSRASAALRHAGDELLIRFPIF [zBcl-wav BH3 motif peptide] | Kd [6]: 3570 nM
15 |  |  | 264 | 4600 | ELCDPSHKRLAQCLQQIGDELDGNAQLQ [zBax BH3 motif peptide] | 
16 |  |  | 335 | 510 | EQTAVVECAQQLRNIGDLLNWKYKLL [zNoxa BH3 motif peptide] | 
17 |  |  | 117 | 2770 | EEQAVERVAVQLRTIGDEMNAVFLQR [zPuma BH3 motif peptide] | 
18 |  |  | 13 | 168 | ALPPEMVVARELRRIGDEFNRLYCEA [zBim BH3 motif peptide] | Kd [6]: 41 nM
